Read-outs that look alike come from different tables or passages of the source.
How the values were obtained:
Type in all cases: cell-based, human
HT-29 = experiment: Proliferation inhibition, CellTiter-Glo; conditions: Table D-1, 3 days, read-out: HT-29 Prolif. EC50
Protocol: (§1) All cancer cell lines (A375, A101D, A2058, RKO, HT29 SK-MEL 30, IPC298, HepG2, HCT-116, Lovo, SW620, SW480, NCI-H358, NCI-H2122, Calu-6, NCIH2087, NCIH1755, NCIH1666 and Mewo) were obtained from ATCC and cultured in RPMI-1640 medium (Gibco) supplemented with 5% heat inactivated fetal bovine serum (FBS, Wisent) at 37° C. under 5% CO2. Cells were maintained in T175 flasks (Greiner). They were passaged by removing the culture medium, washing once in 10 mL of room temperature Phosphate Buffered Saline (PBS; Wisent) and incubating at 37° C. with 2 mL of 0.05% Trypsin (Thermo-Fisher). Trypsin was then inactivated by adding complete growth medium and the cells were then replated in a T175 culture dish at the appropriate dilution. All cell lines were routinely tested for mycoplasma contamination. Tissue type and mutational status of each cell line can be found in Table B.
(§2) CellTiter-Glo® viability analysis was conducted on cells plated in […] of complete RPMI-1640 growth medium in 96-well flat-bottomed white opaque plates (Greiner or Corning) at a density indicated in Table E (for each CCL, number of cells plated per well of a 96-well plate to perform the CellTiter-Glo® cell viability assay). The cell density in cells/cm^2 would correspond to cell number divided by the area of one well of a 96-well plate (0.32 cm^2). Cells were maintained overnight at 37° C. under 5% CO2 before treatment with compounds' dilution series for 3 days.
(§3) In a dilution series 100 μL/well of test substance dilution prepared in complete RPMI-1640 growth media was added to the cells plated initially in 100 μL of growth media. The dilution series is selected so that ten concentrations cover a range from 30 μM or 10 μM to […]. If necessary (as in the case of A375 cells, which were more sensitive to the compounds) the initial concentration of 10 μM is lowered to 1 μM and further dilution is carried out accordingly. The final concentration of DMSO in the assay is set to 0.5%.
(§4) After 3 days of incubation, the growth media were removed by aspiration and 60 μL of diluted CellTiter-Glo® reagent (10 μL CellTiter-Glo® reagent+50 μL of PBS) was added to each well. Cells were allowed to lyse and to equilibrate in CellTiter-Glo® reagent by 5 min incubation on a plate shaker followed by 10 min incubation at room temperature. Luminescence signals were then acquired on a Synergy Neo2 plate reader (Biotek).
(§5) The effect of each compound dilution on the proliferation of cancer cell lines was expressed in % inhibition and calculated as follows. An internal 100% inhibition control (1 μM of trametinib; cat. No. HY-10999; MedChem Express; CAS No. 871700-17-3) was included in each plate and used as a measure of CellTiter-Glo® signal background. The value obtained for trametinib was subtracted from each data point. The average of DMSO (vehicle) controls (set as 0% inhibition) was established and used to calculate % inhibition:
(§6) The ability of each compound to inhibit proliferation was expressed as a EC50 value obtained by plotting the effect values for each data point of a dilution series and fitting the obtained curves using a log(agonist) versus response−variable slope (four parameters) function using GraphPadPrism (V7.0) or Dotmatics Screening Ultra platform.

SW480 = experiment: Proliferation inhibition, CellTiter-Glo; conditions: Table D-2, 3 days, read-out: SW480 Prolif. EC50
Protocol: as §1, §2, §3, §4, §5, §6

A375 = experiment: Proliferation inhibition, CellTiter-Glo; conditions: Table D-1, 3 days, read-out: A375 Prolif. EC50
Protocol: as §1, §2, §3, §4, §5, §6

NCI-H358 = experiment: Proliferation inhibition, CellTiter-Glo; conditions: Table D-2, 3 days, read-out: NCI-H358 Prolif. EC50
Protocol: as §1, §2, §3, §4, §5, §6

SW480 pERK = experiment: Phospho-ERK inhibition, AlphaLISA SureFire Ultra p-ERK 1/2; conditions: for SW480 pERK, value in parentheses, % inhibition: % Ymin of pERK IC50 curve; for SW480 (Ymin %): lowest value of the pERK IC50 curve
How it was run: (§7)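 Cells plated in RPMI-1640 with 5% FBS, held overnight, then exposed 1 h to ten-point compound dilutions (top 30 or 10 μM down to 0.33 nM; 0.5% DMSO). Lysates read for p-ERK1/2 (Thr202/Tyr204) by AlphaLISA; % inhibition relative to DMSO after subtracting a 1 μM trametinib background; IC50 from four-parameter fit.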

HCT116 pERK = experiment: as above; conditions: for HCT116 pERK, value in parentheses, % inhibition: % Ymin of pERK IC50 curve; for HCT116 (Ymin %): lowest value of the pERK IC50 curve
How it was run: as §7

A101D = experiment: Proliferation inhibition, CellTiter-Glo; conditions: Table D-1, 3 days, read-out: A101D Prolif. EC50
Protocol: as §1, §2, §3, §4, §5, §6

[1] = Homo sapiens, SW480, Table D-2, read-out: SW480 pERK IC50
[2] = Homo sapiens, HCT-116, Table D-1
[3] = Table 3, 1 h treatment, read-out: SW480 PERK IC50
[4] = Table D-2, read-out: SW480 pERK IC50

Compound	EC50 (HT-29; Homo sapiens, HT-29, 72 h) [nM]	EC50 (SW480; Homo sapiens, SW480, 72 h) [nM]	EC50 (A375; Homo sapiens, A-375, 72 h) [nM]	EC50 (NCI-H358; Homo sapiens, NCI-H358, 72 h) [nM]	IC50 (SW480 pERK; [1]) [nM]	SW480 pERK, value in parentheses, % inhibition (SW480 pERK; Table D-2)	IC50 (HCT116 pERK; [2]) [nM]	HCT116 pERK, value in parentheses, % inhibition (HCT116 pERK; Table D-1)	IC50 (SW480 pERK; [3]) [nM]	SW480 (Ymin %) (SW480 pERK; Table 3) [%]	IC50 (HCT116 pERK; Table 3, 1 h treatment) [nM]	HCT116 (Ymin %) (HCT116 pERK; Table 3)	EC50 (HT-29) [nM]	EC50 (SW480) [nM]	EC50 (A375) [nM]	EC50 (NCI-H358) [nM]	EC50 (A101D) [nM]	IC50 (SW480 pERK; [4]) [nM]	IC50 (HCT116 pERK; Table D-1) [nM]	further results
Cc1ccc2c(Nc3cccc(Cl)c3F)nccc2c1NC(=O)c1csc2c(N)ncnc12 [Belvarafenib, reference compound]	< 300	300 to 3000	< 300	300 to 3000	30 to 300	(−100) %	30 to 300	(−46) %												
Nc1cccc2c1ncn2-c1ncc2ncnc(Nc3c(F)ccc(NS(=O)(=O)c4cccc(Cl)c4Cl)c3F)c2n1 [Example 80]									< 500	−2	< 500	−7%								
Cc1c(F)cccc1S(=O)(=O)Nc1ccc(F)c(Nc2ncnc3cnc(-n4cc(C(=O)N(C)Cc5ccncc5)c5ccccc54)nc23)c1F [Example 98]						(−1) %		(−6.0) %	< 500	−1		(−6.0) %	< 300	300 to 3000	< 300	< 300	< 300	30 to 300	30 to 300	
COc1ccc(S(=O)(=O)Nc2ccc(F)c(Nc3ncnc4cnc(-n5cnc6c(N)cccc65)nc34)c2F)c(C)c1Cl [Example 112]						(−7) %		(−0.8) %	< 500	−7	500 to 1000	−0.8%	< 300	300 to 3000	< 300	< 300	< 300	30 to 300	> 300	
Cc1c(F)cccc1S(=O)(=O)Nc1ccc(F)c(Nc2ncnc3cnc(-n4cnc5c(-c6cccnc6)cccc54)nc23)c1F [Example 114]	< 300	> 3000	< 300	< 300	30 to 300	(1) %	> 300	(−4.9) %		2										EC50 (A101D; Homo sapiens, A101D, 72 h): < 300 nM; IC50 (SW480 pERK; Homo sapiens, SW480, Table 3, 1 h treatment, read-out: SW480 PERK IC50): < 500 nM; IC50 (HCT116 pERK; Homo sapiens, HCT-116, Table 3, 1 h treatment): < 500 nM
O=S(=O)(Nc1ccc(F)c(Nc2ncnc3cnc(-n4cnc5c(N6CCC7(CCCO7)CC6)cccc54)nc23)c1F)c1cccc(Cl)c1Cl [Example 129]						(3) %		(−8) %	< 500	3	< 500	−8%	< 300	300 to 3000	< 300	< 300	< 300	30 to 300	30 to 300	
